# Experimental data published in ChEMBL document CHEMBL2203073, “Synthesis and biological evaluation of 4,4-dimethyl lithocholic acid derivatives as novel inhibitors of protein tyrosine phosphatase 1B” (Bioorg Med Chem Lett, 2012).
# How the values were obtained:
# [1] = Selectivity index, ratio of IC50 for TCPTP to PTP1B
# [2] = molecular target: T1, Tyrosine-protein phosphatase non-receptor type 2 (Homo sapiens, UniProt P17706); test: Inhibition of TCPTP by para-nitrophenyl phosphate release assay
# T1 sequence (P17706 whole entry): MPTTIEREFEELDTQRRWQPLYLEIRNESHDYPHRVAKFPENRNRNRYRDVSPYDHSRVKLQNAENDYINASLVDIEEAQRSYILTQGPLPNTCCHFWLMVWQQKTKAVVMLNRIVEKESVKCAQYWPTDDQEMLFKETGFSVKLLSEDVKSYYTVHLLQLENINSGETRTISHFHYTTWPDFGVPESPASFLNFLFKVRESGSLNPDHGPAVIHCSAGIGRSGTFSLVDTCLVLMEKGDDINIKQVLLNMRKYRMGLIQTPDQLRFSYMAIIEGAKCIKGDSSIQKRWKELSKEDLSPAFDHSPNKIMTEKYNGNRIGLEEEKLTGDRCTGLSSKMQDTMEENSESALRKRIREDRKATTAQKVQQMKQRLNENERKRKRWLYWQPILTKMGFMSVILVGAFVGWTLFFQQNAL
# [3] = molecular target: T2, Tyrosine-protein phosphatase non-receptor type 1 (Homo sapiens, UniProt P18031); test: Inhibition of PTP1B by para-nitrophenyl phosphate release assay
# T2 sequence (P18031 whole entry): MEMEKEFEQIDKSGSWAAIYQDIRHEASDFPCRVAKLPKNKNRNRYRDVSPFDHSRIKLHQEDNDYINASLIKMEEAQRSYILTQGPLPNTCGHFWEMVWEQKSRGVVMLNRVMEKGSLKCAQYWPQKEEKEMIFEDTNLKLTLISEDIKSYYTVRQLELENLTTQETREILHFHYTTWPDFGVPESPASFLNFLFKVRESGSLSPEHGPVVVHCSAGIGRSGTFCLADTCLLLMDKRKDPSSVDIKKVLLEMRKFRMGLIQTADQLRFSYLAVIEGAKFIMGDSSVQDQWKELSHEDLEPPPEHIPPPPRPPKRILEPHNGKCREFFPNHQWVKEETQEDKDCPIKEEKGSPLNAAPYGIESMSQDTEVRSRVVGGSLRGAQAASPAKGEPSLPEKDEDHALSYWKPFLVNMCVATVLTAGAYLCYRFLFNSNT
# [4] = molecular target: T2, Tyrosine-protein phosphatase non-receptor type 1; test: Competitive inhibition of PTP1B by para-nitrophenyl phosphate release assay
# [5] = molecular target: T3, Tyrosine-protein phosphatase non-receptor type 11 (Homo sapiens) (UniProt Q06124); test: Inhibition of SHP2 at 40 uM
# T3 sequence (whole entry): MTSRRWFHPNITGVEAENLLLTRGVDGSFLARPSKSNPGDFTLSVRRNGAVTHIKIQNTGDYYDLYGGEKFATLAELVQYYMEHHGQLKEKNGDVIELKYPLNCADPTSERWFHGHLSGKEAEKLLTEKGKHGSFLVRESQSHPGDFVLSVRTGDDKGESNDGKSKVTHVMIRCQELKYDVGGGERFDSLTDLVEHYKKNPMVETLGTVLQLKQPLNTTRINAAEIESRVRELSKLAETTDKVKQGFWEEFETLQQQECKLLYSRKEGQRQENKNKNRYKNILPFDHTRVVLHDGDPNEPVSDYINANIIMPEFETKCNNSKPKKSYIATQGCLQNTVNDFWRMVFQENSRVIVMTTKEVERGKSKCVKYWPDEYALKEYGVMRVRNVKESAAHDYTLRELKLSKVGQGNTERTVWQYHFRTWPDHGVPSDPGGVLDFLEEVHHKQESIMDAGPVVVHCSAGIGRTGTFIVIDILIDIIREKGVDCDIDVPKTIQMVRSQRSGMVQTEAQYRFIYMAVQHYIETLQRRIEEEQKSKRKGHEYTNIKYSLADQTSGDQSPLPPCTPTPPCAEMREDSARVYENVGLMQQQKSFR
# [6] = molecular target: Receptor-type tyrosine-protein phosphatase F (Homo sapiens) (UniProt P10586); test: Inhibition of LAR at 40 uM
# Sequence of Receptor-type tyrosine-protein phosphatase F (Homo sapiens) (P10586 whole entry): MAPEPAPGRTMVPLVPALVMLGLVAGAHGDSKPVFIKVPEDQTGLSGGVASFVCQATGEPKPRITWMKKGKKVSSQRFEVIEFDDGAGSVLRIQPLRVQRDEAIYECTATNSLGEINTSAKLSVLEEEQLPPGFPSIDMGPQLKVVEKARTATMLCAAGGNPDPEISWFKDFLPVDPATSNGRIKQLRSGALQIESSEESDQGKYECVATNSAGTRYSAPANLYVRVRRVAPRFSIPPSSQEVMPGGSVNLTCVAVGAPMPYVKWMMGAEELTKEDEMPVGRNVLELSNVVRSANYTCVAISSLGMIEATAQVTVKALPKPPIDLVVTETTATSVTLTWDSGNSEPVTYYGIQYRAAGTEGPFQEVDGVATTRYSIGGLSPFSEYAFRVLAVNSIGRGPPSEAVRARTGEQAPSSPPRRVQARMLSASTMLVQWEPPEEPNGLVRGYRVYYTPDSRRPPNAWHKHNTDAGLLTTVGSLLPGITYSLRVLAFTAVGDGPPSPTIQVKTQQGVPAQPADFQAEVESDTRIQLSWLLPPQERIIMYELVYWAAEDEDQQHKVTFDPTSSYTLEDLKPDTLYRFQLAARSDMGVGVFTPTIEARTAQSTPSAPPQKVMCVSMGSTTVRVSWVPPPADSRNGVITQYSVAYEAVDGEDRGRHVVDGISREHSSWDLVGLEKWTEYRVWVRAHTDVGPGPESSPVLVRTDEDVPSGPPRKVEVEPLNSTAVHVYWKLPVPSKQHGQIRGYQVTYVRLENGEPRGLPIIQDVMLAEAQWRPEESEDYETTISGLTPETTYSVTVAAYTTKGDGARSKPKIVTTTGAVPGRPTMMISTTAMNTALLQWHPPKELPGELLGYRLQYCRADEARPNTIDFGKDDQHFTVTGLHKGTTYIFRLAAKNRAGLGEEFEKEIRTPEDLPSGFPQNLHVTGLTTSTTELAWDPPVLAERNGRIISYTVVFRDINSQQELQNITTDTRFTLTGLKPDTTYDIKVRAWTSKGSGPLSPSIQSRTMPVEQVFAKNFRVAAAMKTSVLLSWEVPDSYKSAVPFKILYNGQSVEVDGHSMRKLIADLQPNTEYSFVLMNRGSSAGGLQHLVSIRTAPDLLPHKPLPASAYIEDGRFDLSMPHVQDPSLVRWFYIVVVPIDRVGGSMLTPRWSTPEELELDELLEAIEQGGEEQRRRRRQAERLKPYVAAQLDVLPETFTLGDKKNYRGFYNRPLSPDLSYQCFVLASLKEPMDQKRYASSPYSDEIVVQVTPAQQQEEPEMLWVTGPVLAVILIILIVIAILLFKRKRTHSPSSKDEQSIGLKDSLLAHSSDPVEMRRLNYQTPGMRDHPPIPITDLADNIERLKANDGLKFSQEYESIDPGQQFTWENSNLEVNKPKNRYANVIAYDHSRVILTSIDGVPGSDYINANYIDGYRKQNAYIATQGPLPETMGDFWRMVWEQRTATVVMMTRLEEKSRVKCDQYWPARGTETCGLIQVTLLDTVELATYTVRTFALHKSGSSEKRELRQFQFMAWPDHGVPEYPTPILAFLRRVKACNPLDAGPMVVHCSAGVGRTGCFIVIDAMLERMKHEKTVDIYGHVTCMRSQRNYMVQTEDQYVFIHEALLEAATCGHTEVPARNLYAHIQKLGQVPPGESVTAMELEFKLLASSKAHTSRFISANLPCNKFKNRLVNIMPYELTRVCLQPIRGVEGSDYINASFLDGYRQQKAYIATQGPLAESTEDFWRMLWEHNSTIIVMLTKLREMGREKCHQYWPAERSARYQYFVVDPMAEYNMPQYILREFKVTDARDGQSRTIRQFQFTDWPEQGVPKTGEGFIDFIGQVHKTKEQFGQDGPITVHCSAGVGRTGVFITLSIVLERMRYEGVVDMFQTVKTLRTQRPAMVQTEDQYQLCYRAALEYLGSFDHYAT
# [7] = molecular target: Tyrosine-protein phosphatase non-receptor type 6 (Homo sapiens) (UniProt P29350); test: Inhibition of SHP1 at 40 uM
# Sequence of Tyrosine-protein phosphatase non-receptor type 6 (Homo sapiens) (P29350 whole entry): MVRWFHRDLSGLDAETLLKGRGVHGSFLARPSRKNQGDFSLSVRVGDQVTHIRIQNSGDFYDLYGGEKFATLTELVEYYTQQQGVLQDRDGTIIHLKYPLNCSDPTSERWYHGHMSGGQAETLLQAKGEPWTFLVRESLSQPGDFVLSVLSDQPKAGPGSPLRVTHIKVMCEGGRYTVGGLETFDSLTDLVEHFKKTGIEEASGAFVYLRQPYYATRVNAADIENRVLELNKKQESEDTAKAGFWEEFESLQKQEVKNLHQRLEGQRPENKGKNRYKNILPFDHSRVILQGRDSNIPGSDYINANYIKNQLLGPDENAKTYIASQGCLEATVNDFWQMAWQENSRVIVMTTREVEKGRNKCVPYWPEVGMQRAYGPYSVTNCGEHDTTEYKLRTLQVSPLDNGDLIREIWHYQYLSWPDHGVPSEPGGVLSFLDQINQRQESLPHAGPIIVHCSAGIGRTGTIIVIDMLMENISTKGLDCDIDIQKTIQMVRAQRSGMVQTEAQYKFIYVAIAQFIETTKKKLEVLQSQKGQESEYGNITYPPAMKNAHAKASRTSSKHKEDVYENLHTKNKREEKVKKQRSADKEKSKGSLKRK
Structure (SMILES),Ratio IC50 [1],IC50 [2],IC50 [3],Ki [4],inhibition [5],inhibition [6],inhibition [7]
C[C@H](CCC(=O)O)[C@H]1CC[C@H]2[C@@H]3CC=C4C(C)(C)c5ncncc5C[C@]4(C)[C@H]3CC[C@]12C,0.9,10.8 µM,11.6 µM,,,,
C[C@H](CCC(=O)O)[C@H]1CC[C@H]2[C@@H]3CC=C4C(C)(C)c5nc(N)sc5C[C@]4(C)[C@H]3CC[C@]12C,2,11 µM,5.57 µM,,,,
C[C@H](CCC(=O)O)[C@H]1CC[C@H]2[C@@H]3CC=C4C(C)(C)c5c(cnn5-c5ccccc5)C[C@]4(C)[C@H]3CC[C@]12C,14.1,22.8 µM,1.62 µM,0.84 µM,9.36%,26.9%,0.97%
C[C@H](CCC(=O)O)[C@H]1CC[C@H]2[C@@H]3CC=C4C(C)(C)c5[nH]ncc5C[C@]4(C)[C@H]3CC[C@]12C,4.7,19.2 µM,4.11 µM,,,,
C[C@H](CCC(=O)O)[C@H]1CC[C@H]2[C@@H]3CC=C4C(C)(C)c5nc(N)ncc5C[C@]4(C)[C@H]3CC[C@]12C,5,17.1 µM,3.61 µM,,,,
COC(=O)CC[C@@H](C)[C@H]1CC[C@H]2[C@@H]3CC=C4C(C)(C)C(=O)CC[C@]4(C)[C@H]3CC[C@]12C,> 3.8,> 50 µM,13.2 µM,,,,
C[C@H](CCC(=O)O)[C@H]1CC[C@H]2[C@@H]3CC=C4C(C)(C)c5oncc5C[C@]4(C)[C@H]3CC[C@]12C,5.1,46.6 µM,9.13 µM,,,,
C[C@H](CCC(=O)O)[C@H]1CC[C@H]2[C@@H]3CC=C4C(C)(C)C(=O)CC[C@]4(C)[C@H]3CC[C@]12C,,> 50 µM,13.2 µM,,,,
CCOC(=O)CC[C@@H](C)[C@H]1CC[C@H]2[C@@H]3CC=C4C(C)(C)c5[nH]ncc5C[C@]4(C)[C@H]3CC[C@]12C,> 2.1,> 40 µM,19.2 µM,,,,
COC(=O)CC[C@@H](C)[C@H]1CC[C@H]2[C@@H]3CC=C4C(C)(C)c5nccnc5C[C@]4(C)[C@H]3CC[C@]12C,> 1.4,> 40 µM,28.2 µM,,,,
CCOC(=O)CC[C@@H](C)[C@H]1CC[C@H]2[C@@H]3CC=C4C(C)(C)c5nc(N)ncc5C[C@]4(C)[C@H]3CC[C@]12C,,> 40 µM,> 40 µM,,,,
C[C@H](CCC(=O)O)[C@H]1CC[C@H]2[C@@H]3CC=C4C(C)(C)c5[nH]nc(C(=O)O)c5C[C@]4(C)[C@H]3CC[C@]12C,0.9,9 µM,9.27 µM,,,,
C[C@H](CCC(=O)O)[C@H]1CC[C@H]2[C@@H]3CC=C4C(C)(C)c5nccnc5C[C@]4(C)[C@H]3CC[C@]12C,2.8,23.8 µM,8.62 µM,,,,
C[C@H](CCC(=O)O)[C@H]1CC[C@H]2[C@@H]3CC=C4C(C)(C)c5nnsc5C[C@]4(C)[C@H]3CC[C@]12C,0.9,36.6 µM,39.4 µM,,,,
O=C(O)C(=O)c1ccc(OCc2ccc(COc3ccc(C(=O)C(=O)O)cc3)cc2)cc1,1.6,,,,,,
Cc1ncc2c(n1)C(C)(C)C1=CC[C@H]3[C@@H]4CC[C@H]([C@H](C)CCC(=O)O)[C@@]4(C)CC[C@@H]3[C@@]1(C)C2,1.2,11.5 µM,9.11 µM,,,,
COC(=O)CC[C@@H](C)[C@H]1CC[C@H]2[C@@H]3CC=C4C(C)(C)c5nc(N)sc5C[C@]4(C)[C@H]3CC[C@]12C,> 4.4,> 40 µM,9.04 µM,,,,
C[C@H](CCC(=O)O)[C@H]1CC[C@H]2[C@@H]3CC[C@@H]4C[C@H](O)CC[C@]4(C)[C@H]3CC[C@]12C [LITHOCHOLIC ACID],1.6,20.4 µM,12.7 µM,,,,
